Reference: patent US10647680B2, “Urea compound, preparation method therefor and medical use thereof” (Ancureall Pharmaceutical (Shanghai) Co., Ltd., priority 2016, dated 2020)
Where a name gives a salt, the structure may show the parent alone.

Experiment: Solubility test
Format: physicochemical
Conditions: in water at 25° C.±2° C.
Procedure: The fine powder of the test sample was weighed into an appropriate amount of water at 25° C.±2° C. and shaken vigorously for 30 seconds every 5 minutes so that it was fully dissolved within 30 minutes. If no visible solute particles were observed, it was considered completely dissolved. “Readily soluble” means that 1 g of the test sample could be dissolved in 1-10 ml of water; and “soluble” means that 1 g of the test sample could be dissolved in 10-30 ml of water; “slightly soluble” means that 1 g of the test sample could be dissolved in 30-100 ml of water; and “sparingly soluble” means that 1 g of the test sample could be dissolved in 100-1,000 ml of water; “nearly insoluble or insoluble” means that 1 g of the test sample could not be completely dissolved in 10,000 ml of water.

SMILES	Solubility	also measured
COCCOc1ccc2ncn(-c3ccc(NC(=O)Nc4cc(C(C)(C)C)n[nH]4)cc3)c2c1 [Compound 98 Mesylate, 1-(5-tert-butyl-2H-pyrazol-3-yl)-3-{4-[6-(2-methoxyl-ethoxyl)-benzimidazol-1-yl]-phenyl}-urea]	readily soluble (“Readily soluble” means that 1 g of the test sample could be dissolved in 1-10 ml of water)	
COc1ccc2c(c1)ncn2-c1ccc(NC(=O)Nc2cc(C(C)(C)C)n[nH]2)cc1 [Compound 71 Hydrochloride, 1-(5-tert-butyl-2H-pyrazol-3-yl)-3-[4-(5-methoxyl-benzimidazol-1-yl)-phenyl]-urea]		Solubility (listed as 71 Hydrochloride): slightly soluble (“slightly soluble” means that 1 g of the test sample could be dissolved in 30-100 ml of water)
COc1cc2ncn(-c3ccc(NC(=O)n4nc(C(C)(C)C)cc4N)cc3)c2cc1OC [Compound 129 Mesylate, 5-amino-3-tert-butyl-pyrazol-1-carboxylic acid [4-(5,6-dimethoxyl-benzimidazol-1-yl)-phenyl]-amide]	readily soluble (“Readily soluble” means that 1 g of the test sample could be dissolved in 1-10 ml of water)	
CC(C)(C)c1cc(N)n(C(=O)Nc2ccc(-n3cnc4cc(OCCO)ccc43)cc2)n1 [Compound 121 Mesylate, 5-amino-3-tert-butyl-pyrazol-1-carboxylic acid {4-[5-(2-hydroxy-ethoxyl)-benzimidazol-1-yl]-phenyl}-amide]	readily soluble (“Readily soluble” means that 1 g of the test sample could be dissolved in 1-10 ml of water)	
COCCOc1ccc2c(c1)ncn2-c1ccc(NC(=O)Nc2cc(C(C)(C)C)n[nH]2)cc1 [Compound 77 Trifluoroacetates, 1-(5-tert-butyl-2H-pyrazol-3-yl)-3-{4-[5-(2-methoxyl-ethoxyl)-benzimidazol-1-yl]-phenyl}-urea]		Solubility (listed as 77 Trifluoroacetates): slightly soluble (“slightly soluble” means that 1 g of the test sample could be dissolved in 30-100 ml of water)
COCCOc1ccc2c(c1)ncn2-c1ccc(NC(=O)Nc2cc(C(C)(C)C)n[nH]2)cc1 [Compound 77 Benzene sulfonate, 1-(5-tert-butyl-2H-pyrazol-3-yl)-3-{4-[5-(2-methoxyl-ethoxyl)-benzimidazol-1-yl]-phenyl}-urea]		Solubility (listed as 77 Benzene sulfonate): slightly soluble (“slightly soluble” means that 1 g of the test sample could be dissolved in 30-100 ml of water)
CC(C)(C)c1cc(NC(=O)Nc2ccc(-n3cnc4cc(OCCN5CCOCC5)ccc43)cc2)no1 [Compound 16 Mesylate, 1-(5-tert-butyl-isoxazol-3-yl)-3-{4-[5-(2-morpholin-4-yl-ethoxyl)-benzimidazol-1-yl]-phenyl}-urea]		Solubility (listed as 16 Mesylate): readily soluble (“Readily soluble” means that 1 g of the test sample could be dissolved in 1-10 ml of water)
CCCCCCOc1ccc2c(c1)ncn2-c1ccc(NC(=O)n2nc(C(C)(C)C)cc2N)cc1 [Compound 117 Mesylate, 5-amino-3-tert-butyl-pyrazol-1-carboxylic acid [4-(5-hexyloxyl-benzimidazol-1-yl)-phenyl]-amide]	readily soluble (“Readily soluble” means that 1 g of the test sample could be dissolved in 1-10 ml of water)	
CN(C)CCCOc1ccc2c(c1)ncn2-c1ccc(NC(=O)Nc2cc(C(C)(C)C)n[nH]2)cc1 [Compound 81 Mesylate]	readily soluble (“Readily soluble” means that 1 g of the test sample could be dissolved in 1-10 ml of water)	
